One compound from patent US10195147B1, “Dry powder compositions with magnesium stearate” (OTITOPIC INC., priority 2017, dated 2019) can be followed below.

What all share (format): physicochemical
Data set [1] in a line: Particle size distribution by Spraytec using low resistance device. The conditions noted are these: 90 L/min, 2.7 second actuation, 5 tests. The method, then:
Particle size distribution of ASA/MgST dry powder composition with 0.5%, 1%, 5%, and 10% w/w MgST, spray-dried Aspirin 85%/Leucine 15% Formulation (036 or 36)>Aspirin 95%/Leucine 5% Formulation (046 or 46), and micronized ASA were measured by Spraytec using low resistance device, at 90 L/min flow rate with 2.7 second actuation time with a step of device/mouthpiece/USP/throat/IC/DUSA, and 5 tests for each composition (Table 5E).

Data set [2] is described as follows: NGI data of the NGI v. Spraytec comparison. The conditions noted are these: Table 5F.
The nature of data set [3]: Colloid-probe atomic force microscopy, force of cohesion. The conditions noted are these: five drug probes per formulation against smooth crystalline aspirin surface. The source says: Colloid-probe atomic force microscopy studies (AFM) was used to measure the cohesive surface interfacial forces (FIG. 6). Five individual particles from each of powder formulation was attached to tipless cantilevers. These were designated as drug probes, which were then interacted with a smooth surface of crystalline aspirin. In this way, it was possible to measure the force of cohesion of the particles of the different formulations (FIG. 6), which followed the following rank order: […]

Several values for one entry are separate records, joined by “and”; a condition that tells them apart may be missing. Equal entries are not always repeated.

`CC(=O)Oc1ccccc1C(=O)O` [Micronized ASA, acetylsalicylic acid]: in data set [1], the “% V < 5 μm” value is 54.7 (3.15) %; the “% V < 10 μm” value was 88.99 (2.05) %; the “Dv(10)” value is on record as 1.9 (0.08) μm; the “Dv(50)” value is 4.63 (0.24) μm and 4.62 (0.24) μm. Besides, the “Dv(90)” value in data set [1] is reported as 10.32 (0.65) μm. In data set [2], the “NGI FPF” value turned out to be 20.71% and the “NGI MMAD” value turned out to be 4.86 μm. The “force of cohesion, rank order” value in data set [3] is “>ASA co-micronised with 0.5% magnesium stearate”.
